Results on 39 sequences are retold here after the OligoGym collection.

“And” between values parts separate entries of the source, which are not always exact repeats. Identical values can stand only once. After the bases stand the sugars from the 5' end (letter, count) and the backbone: PS all phosphorothioate, else s phosphorothioate and o phosphodiester by linkage. Methylation of C is not given here. k = constrained ethyl (cEt); d = 2'-deoxy (DNA)

This series concerns the target MALAT1. Particulars: ASO, A431, 0.005 µM.

On to ATCCTGAAATCCCCTA (sugars k3 d10 k3, PS), for which the target mRNA inhibition came to 8%.

Regarding TCAATTTATAGACCCC (sugars k3 d10 k3, PS), the target mRNA inhibition is 47%.

GAAAACTCCCCCCCGC (sugars k3 d10 k3, PS): the target mRNA inhibition is -4%. The value for GAAAGTCCTTCACATT (sugars k3 d10 k3, PS) was 22%; that for TTGTGGTTATAGCTTG (sugars k3 d10 k3, PS) was 68% and 93%. On to AGAGCTACTTAGCTGT (sugars k3 d10 k3, PS), for which the target mRNA inhibition came out at 16%. With TATTCCTTTCATAGAG (sugars k3 d10 k3, PS), the target mRNA inhibition turned out to be 11%. Consider CCCACCCAGCATTACA (sugars k3 d10 k3, PS), for which the target mRNA inhibition is 18%. The value for TACAAAACGAATTCAG (sugars k3 d10 k3, PS) was 20%. Under ACCCAGTGGCTCATAT (sugars k3 d10 k3, PS) stands 16%; under AAATCATTGGGAGTTA (sugars k3 d10 k3, PS), 24%; under CTTAGTAACCTATTGA (sugars k3 d10 k3, PS), 34%.

As to AAGCCCACCCTCTAAG (sugars k3 d10 k3, PS), the target mRNA inhibition stood at 21%. Under GTTAAACTTATCTGTT (sugars k3 d10 k3, PS) stands 41%. For the sequence TCTAAGATTGTAAGCA (sugars k3 d10 k3, PS), the target mRNA inhibition stood at 53%.

In the case of GCCATGGAAAGCGAGT (sugars k3 d10 k3, PS), the target mRNA inhibition came out at 9%. The value for CTCCTGACAAATTATA (sugars k3 d10 k3, PS) was 17%; that for AGCTTCAACTGGGAAT (sugars k3 d10 k3, PS) was 13%; that for GCTTACACACAACTGA (sugars k3 d10 k3, PS) was 50%.

In the case of GGTCATCTATTCACAA (sugars k3 d10 k3, PS), the target mRNA inhibition was 29%.

Regarding CACAATTCTTAATCAG (sugars k3 d10 k3, PS), the target mRNA inhibition came out at 41%.

Turning to AAATTGCACTCGCTCC (sugars k3 d10 k3, PS), the target mRNA inhibition is 28%. The value for AACGAAACATTGGCAC (sugars k3 d10 k3, PS) was 48%; that for TTCTAGCTTCAAGTAT (sugars k3 d10 k3, PS) was 25%; that for GGTTATGCTTATTCCC (sugars k3 d10 k3, PS) was 37%. In the case of TAAGATGCTAGCTTGG (sugars k3 d10 k3, PS), the target mRNA inhibition is 25%.

CATAAACAATGCACTA (sugars k3 d10 k3, PS): the target mRNA inhibition came to 14%. Turning to CTAAGATGCTAGCTTG (sugars k3 d10 k3, PS), the target mRNA inhibition was -26%.

On to GATGCTAGCTTGGCCA (sugars k3 d10 k3, PS), for which the target mRNA inhibition is -2%.

Turning to AAGCATTGCCCTTCTA (sugars k3 d10 k3, PS), the target mRNA inhibition amounted to 46%. Under CTGTTACACCTTGAGT (sugars k3 d10 k3, PS) stands 33%; under TAAGCAATATCTTAGT (sugars k3 d10 k3, PS), 16%.

In the case of TGCCACAGGAAGGCTC (sugars k3 d10 k3, PS), the target mRNA inhibition was -10%. The value for CAAAACCCCCGGAACT (sugars k3 d10 k3, PS) was 0%. Consider CATGCAATACTGCAGA (sugars k3 d10 k3, PS), for which the target mRNA inhibition stood at 15%. As to TCAGACCTTCTGAACC (sugars k3 d10 k3, PS), the target mRNA inhibition was -6%. Under CTAGACAGACCTAAGG (sugars k3 d10 k3, PS) stands 2%; under TCTCCAATGGACATCT (sugars k3 d10 k3, PS), 8%. The value for GCCTTCGGTGCCTTTA (sugars k3 d10 k3, PS) was -2%.
